Several values for one entry are separate records, joined by “and”; a condition that tells them apart may be missing. Equal values may be shown once. Inconclusive results and toxic doses are left out.
Test system: B6C3F1 mice, B16 melanoma ip, median survival T/C
Experiment: NCI In Vivo Anticancer Drug Screen. Data for tumor model B16 Melanoma (intraperitoneal) in B6C3F1 mice
Conditions: endpoint: median survival time, schedule: Q01DX009 (ip), higher = longer survival
Method: The antitumor activity of compounds was measured in mice bearing transplantable tumors. Survival or tumor size were measured and the results are expressed as the measurement made in the treated group (T) divided by the measurement made in the vehicle treated control group (C). The tumor model used in this assay is B16 Melanoma (intraperitoneal) in B6C3F1 mice

[1] = dose: 25.0 mg/kg/injection, vehicle: saline with Tween-80
[2] = dose: 50.0 mg/kg/injection, vehicle: saline with Tween-80
[3] = dose: 100.0 mg/kg/injection, vehicle: saline with Tween-80
[4] = dose: 12.5 mg/kg/injection, vehicle: saline with Tween-80
[5] = dose: 50.0 mg/kg/injection, vehicle: saline
[6] = dose: 100.0 mg/kg/injection, vehicle: saline
[7] = dose: 200.0 mg/kg/injection, vehicle: saline with Tween-80

C=CCCC(=O)CCCC(=O)O[C@@H]1[C@@H]2[C@H](CC1(C)C)[C@H](O)[C@@]13O[C@@H]1[C@H](O)[C@@]1(CO1)[C@@]23C
T/C (dose: 3.12 micrograms/kg/injection, vehicle: saline): 97 % of control
T/C (dose: 6.25 micrograms/kg/injection, vehicle: saline): 91 % of control
T/C (dose: 12.5 micrograms/kg/injection, vehicle: saline): 103 % of control
T/C (dose: 25.0 micrograms/kg/injection, vehicle: Klucel (hydroxypropylcellulose) (HPC)): 98 % of control
T/C (dose: 25.0 micrograms/kg/injection, vehicle: saline): 93 % of control
T/C (dose: 50.0 micrograms/kg/injection, vehicle: Klucel (hydroxypropylcellulose) (HPC)): 91 % of control
T/C (dose: 50.0 micrograms/kg/injection, vehicle: saline): 97 % of control
T/C (dose: 100.0 micrograms/kg/injection, vehicle: saline): 98 % of control
T/C (dose: 200.0 micrograms/kg/injection, vehicle: Klucel (hydroxypropylcellulose) (HPC)): 98 % of control
T/C (dose: 400.0 micrograms/kg/injection, vehicle: Klucel (hydroxypropylcellulose) (HPC)): 96 % of control

CC1(C)CC2(C)OC2C2(C1)N=NC(=Nc1ccccc1)O2 (stereo unspecified)
T/C [1]: 96 % of control
T/C [2]: 100 % of control
T/C [3]: 89 % of control

CCN(CC)CC(=O)O[C@]1(CC)C(=O)OCc2c1cc1n(c2=O)Cc2cc3ccccc3nc2-1
T/C (dose: 1.0 mg/kg/injection, vehicle: water): 108 % of control
T/C (dose: 2.0 mg/kg/injection, vehicle: water): 121 % of control
T/C (dose: 4.8 mg/kg/injection, vehicle: water): 152 % of control
T/C (dose: 8.0 mg/kg/injection, vehicle: water): 166 % of control

CSc1nc(=O)[nH]nc1SCc1ccccc1
T/C (dose: 12.5 mg/kg/injection, vehicle: Klucel (hydroxypropylcellulose) (HPC)): 105 % of control
T/C (dose: 25.0 mg/kg/injection, vehicle: Klucel (hydroxypropylcellulose) (HPC)): 104 % of control
T/C (dose: 50.0 mg/kg/injection, vehicle: Klucel (hydroxypropylcellulose) (HPC)): 104 % of control
T/C (dose: 100.0 mg/kg/injection, vehicle: Klucel (hydroxypropylcellulose) (HPC)): 107 % of control
T/C (dose: 200.0 mg/kg/injection, vehicle: Klucel (hydroxypropylcellulose) (HPC)): 96 % of control
T/C (dose: 400.0 mg/kg/injection, vehicle: Klucel (hydroxypropylcellulose) (HPC)): 115 % of control

NC(=O)c1[nH]nc(C2OC(CO)C(O)C2O)c1O (stereo unspecified)
T/C (dose: 0.13 mg/kg/injection, vehicle: saline): 106 % of control
T/C (dose: 0.25 mg/kg/injection, vehicle: saline): 103 % of control
T/C (dose: 0.5 mg/kg/injection, vehicle: saline): 111 % of control
T/C (dose: 1.0 mg/kg/injection, vehicle: saline): 118 % of control

COC(=Nc1ccccc1)SSC(C)C
T/C (dose: 0.78 mg/kg/injection, vehicle: saline with Tween-80): 112 % of control
T/C (dose: 1.56 mg/kg/injection, vehicle: saline with Tween-80): 116 % of control
T/C (dose: 3.12 mg/kg/injection, vehicle: saline with Tween-80): 87 % of control
T/C [4]: 86 % of control and 104 % of control
T/C [1]: 87 % of control and 97 % of control
T/C [2]: 88 % of control
T/C [3]: 102 % of control

CCCCC(C)(CCN)CCCC
T/C (dose: 25.0 mg/kg/injection, vehicle: saline): 105 % of control
T/C [5]: 122 % of control
T/C [6]: 101 % of control

CN(C)N=Nc1cccc2c1N(C)c1ccc(F)cc1S2
T/C (dose: 6.25 mg/kg/injection, vehicle: other): 103 % of control
T/C (dose: 12.5 mg/kg/injection, vehicle: other): 100 % of control
T/C (dose: 25.0 mg/kg/injection, vehicle: other): 108 % of control
T/C (dose: 50.0 mg/kg/injection, vehicle: other): 95 % of control
T/C (dose: 100.0 mg/kg/injection, vehicle: other): 102 % of control

COc1ccc(/C=C/C(=O)c2cc(C(=O)O)c(OC)cc2OC)cc1OC
T/C [4]: 100 % of control
T/C (dose: 12.5 mg/kg/injection, vehicle: suspension in saline): 106 % of control
T/C [1]: 94 % of control
T/C (dose: 25.0 mg/kg/injection, vehicle: suspension in saline): 101 % of control
T/C [2]: 96 % of control
T/C (dose: 50.0 mg/kg/injection, vehicle: suspension in saline): 106 % of control
T/C [3]: 88 % of control
T/C (dose: 100.0 mg/kg/injection, vehicle: suspension in saline): 96 % of control
T/C [7]: 96 % of control
T/C (dose: 200.0 mg/kg/injection, vehicle: suspension in saline): 108 % of control
T/C (dose: 400.0 mg/kg/injection, vehicle: suspension in saline): 98 % of control

CC(C)(C)OC(=O)NC(CC(=O)O)C(=O)O (stereo unspecified)
T/C [5]: 102 % of control
T/C [6]: 90 % of control
T/C (dose: 200.0 mg/kg/injection, vehicle: saline): 96 % of control

COc1cc([C@@H]2c3cc4c(cc3[C@H](O)[C@H]3COC(=O)[C@H]23)OCO4)cc(OC)c1OC
T/C (dose: 0.36 mg/kg/injection, vehicle: Klucel (hydroxypropylcellulose) (HPC)): 116 % of control
T/C (dose: 0.6 mg/kg/injection, vehicle: Klucel (hydroxypropylcellulose) (HPC)): 102 % of control
T/C (dose: 1.0 mg/kg/injection, vehicle: Klucel (hydroxypropylcellulose) (HPC)): 107 % of control
T/C (dose: 1.67 mg/kg/injection, vehicle: Klucel (hydroxypropylcellulose) (HPC)): 103 % of control
T/C (dose: 2.0 mg/kg/injection, vehicle: Klucel (hydroxypropylcellulose) (HPC)): 123 % of control
T/C (dose: 2.78 mg/kg/injection, vehicle: Klucel (hydroxypropylcellulose) (HPC)): 114 % of control
T/C (dose: 4.0 mg/kg/injection, vehicle: Klucel (hydroxypropylcellulose) (HPC)): 114 % of control

O=C(Nc1cccc(Cl)c1)C1CCCC1=Nc1cccc(Cl)c1 (stereo unspecified)
T/C [2]: 99 % of control
T/C [3]: 96 % of control
T/C [7]: 91 % of control
